The data set has as its system CCRIS mutagenicity, Ames/micronucleus/aberration tests. In words: CCRIS mutagenicity studies.
[1] abbreviates: Test System: AMES SALMONELLA TYPHIMURIUM, Strain/Indicator: TA97, Metabolic Activation: HAMSTER, LIVER, S-9, AROCLOR 1254 (10 OR 30%), Method: PREINCUBATION
Setting [2] is: Test System: AMES SALMONELLA TYPHIMURIUM, Strain/Indicator: TA97, Metabolic Activation: NONE, Method: PREINCUBATION
[3] abbreviates: Test System: AMES SALMONELLA TYPHIMURIUM, Strain/Indicator: TA97, Metabolic Activation: RAT, LIVER, S-9, AROCLOR 1254 (10 OR 30%), Method: PREINCUBATION
The mark [4] stands for this setting: Test System: AMES SALMONELLA TYPHIMURIUM, Strain/Indicator: TA98, Metabolic Activation: HAMSTER, LIVER, S-9, AROCLOR 1254 (10 OR 30%), Method: PREINCUBATION
Setting [5] is: Test System: AMES SALMONELLA TYPHIMURIUM, Strain/Indicator: TA98, Metabolic Activation: NONE, Method: PREINCUBATION
The mark [6] stands for this setting: Test System: AMES SALMONELLA TYPHIMURIUM, Strain/Indicator: TA98, Metabolic Activation: RAT, LIVER, S-9, AROCLOR 1254 (10 OR 30%), Method: PREINCUBATION
Setting [7] is: Test System: AMES SALMONELLA TYPHIMURIUM, Strain/Indicator: TA100, Metabolic Activation: HAMSTER, LIVER, S-9, AROCLOR 1254 (10 OR 30%), Method: PREINCUBATION
Setting [8] is: Test System: AMES SALMONELLA TYPHIMURIUM, Strain/Indicator: TA100, Metabolic Activation: NONE, Method: PREINCUBATION
[9] abbreviates: Test System: AMES SALMONELLA TYPHIMURIUM, Strain/Indicator: TA100, Metabolic Activation: RAT, LIVER, S-9, AROCLOR 1254 (10 OR 30%), Method: PREINCUBATION
Where [10] appears, read: Test System: AMES SALMONELLA TYPHIMURIUM, Strain/Indicator: TA1535, Metabolic Activation: HAMSTER, LIVER, S-9, AROCLOR 1254 (10 OR 30%), Method: PREINCUBATION
[11] abbreviates: Test System: AMES SALMONELLA TYPHIMURIUM, Strain/Indicator: TA1535, Metabolic Activation: NONE, Method: PREINCUBATION
Setting [12] is: Test System: AMES SALMONELLA TYPHIMURIUM, Strain/Indicator: TA1535, Metabolic Activation: RAT, LIVER, S-9, AROCLOR 1254 (10 OR 30%), Method: PREINCUBATION

Calls of active or inactive are those of the source. How the calls were made is not given here.

`Cc1c(C)c2c(c(C)c1OC(=O)CCC(=O)O)CC[C@@](C)(CCC[C@H](C)CCC[C@H](C)CCCC(C)C)O2`: the mutagenic call under setting [1] is “inactive; negative”; the mutagenic call under setting [2] was “inactive; negative”; the mutagenic call under setting [3] was “inactive; negative”; the mutagenic call under setting [4] was “inactive; negative”; the mutagenic call under setting [5] was “inactive; negative”; the mutagenic call under setting [6] was “inactive; negative”. In addition, the mutagenic call under setting [7] is “inactive; negative”; the mutagenic call under setting [8] was “inactive; negative”; the mutagenic call under setting [9] was “inactive; negative”; the mutagenic call under setting [10] was “inactive; negative”; the mutagenic call under setting [11] is “inactive; negative”; the mutagenic call under setting [12] is “inactive; negative”.
Consider `CCOP(=S)(OCC)Oc1cc(C)nc(C(C)C)n1`, for which the mutagenic call reads like this: under setting [1], “inactive; negative”; under setting [2], “inactive; negative”; under setting [3], “inactive; negative”; under setting [4], “inactive; negative”; under setting [5], “inactive; negative”; (Test System: AMES SALMONELLA TYPHIMURIUM, Strain/Indicator: TA98, Metabolic Activation: NONE, Method: STANDARD PLATE) “inactive; negative”. Also, the mutagenic call under setting [6] is “inactive; negative”; the mutagenic call (Test System: AMES SALMONELLA TYPHIMURIUM, Strain/Indicator: TA98, Metabolic Activation: S-9, NADPH GENERATING SYSTEM, Method: STANDARD PLATE) is “inactive; negative”; the mutagenic call under setting [7] is “inactive; negative”; the mutagenic call under setting [8] was “inactive; negative”; the mutagenic call under setting [9] is “inactive; negative”; the mutagenic call (Test System: AMES SALMONELLA TYPHIMURIUM, Strain/Indicator: TA102, Metabolic Activation: NONE, Method: STANDARD PLATE) was “inactive; negative”. Besides, the mutagenic call was “inactive; negative” (Test System: AMES SALMONELLA TYPHIMURIUM, Strain/Indicator: TA102, Metabolic Activation: S-9, NADPH GENERATING SYSTEM, Method: STANDARD PLATE); “inactive; negative” under setting [10]; “inactive; negative” under setting [11]; “inactive; negative” (Test System: AMES SALMONELLA TYPHIMURIUM, Strain/Indicator: TA1535, Metabolic Activation: NONE, Method: STANDARD PLATE); “inactive; negative” under setting [12]; “inactive; negative” (Test System: AMES SALMONELLA TYPHIMURIUM, Strain/Indicator: TA1535, Metabolic Activation: S-9, NADPH GENERATING SYSTEM, Method: STANDARD PLATE). In addition, the mutagenic call reads like this: (Test System: AMES SALMONELLA TYPHIMURIUM, Strain/Indicator: TA1537, Metabolic Activation: NONE, Method: STANDARD PLATE) “inactive; negative”; (Test System: AMES SALMONELLA TYPHIMURIUM, Strain/Indicator: TA1537, Metabolic Activation: S-9, NADPH GENERATING SYSTEM, Method: STANDARD PLATE) “inactive; negative”; (Test System: E. COLI, Strain/Indicator: WP2 UVRA, Metabolic Activation: HAMSTER, LIVER, S-9, AROCLOR 1254, Method: STANDARD PLATE) “inactive; negative”; (Test System: E. COLI, Strain/Indicator: WP2 UVRA, Metabolic Activation: HAMSTER, LIVER, S-9, Method: STANDARD PLATE) “inactive; negative”; (Test System: E. COLI, Strain/Indicator: WP2 UVRA, Metabolic Activation: MOUSE, LIVER, S-9, AROCLOR 1254, Method: STANDARD PLATE) “inactive; negative”; (Test System: E. COLI, Strain/Indicator: WP2 UVRA, Metabolic Activation: MOUSE, LIVER, S-9, Method: STANDARD PLATE) “inactive; negative”. For the same compound, the mutagenic call (Test System: E. COLI, Strain/Indicator: WP2 UVRA, Metabolic Activation: NONE, Method: STANDARD PLATE) is “inactive; negative”; the mutagenic call (Test System: E. COLI, Strain/Indicator: WP2 UVRA, Metabolic Activation: RAT, LIVER, S-9, AROCLOR 1254, Method: STANDARD PLATE) is “inactive; negative”; the mutagenic call (Test System: E. COLI, Strain/Indicator: WP2 UVRA, Metabolic Activation: RAT, LIVER, S-9, Method: STANDARD PLATE) was “inactive; negative”.
`O=[N+]([O-])[C-]1CCCC1`: the mutagenic call reads like this: under setting [8], “active; positive”; (Test System: AMES SALMONELLA TYPHIMURIUM, Strain/Indicator: TA100, Metabolic Activation: RAT, LIVER, S-9, AROCLOR, Method: PREINCUBATION) “active; positive”; (Test System: AMES SALMONELLA TYPHIMURIUM, Strain/Indicator: TA102, Metabolic Activation: NONE, Method: PREINCUBATION) “active; positive”; (Test System: AMES SALMONELLA TYPHIMURIUM, Strain/Indicator: TA102, Metabolic Activation: RAT, LIVER, S-9, AROCLOR, Method: PREINCUBATION) “active; positive”.
Take `Clc1nncc2cnccc12`: the mutagenic call under setting [5] was “inactive; negative”; the mutagenic call (Test System: AMES SALMONELLA TYPHIMURIUM, Strain/Indicator: TA98, Metabolic Activation: RAT, LIVER, S-9, PCB, Method: PREINCUBATION) was “inactive; negative”; the mutagenic call under setting [8] was “inactive; negative”; the mutagenic call (Test System: AMES SALMONELLA TYPHIMURIUM, Strain/Indicator: TA100, Metabolic Activation: RAT, LIVER, S-9, PCB, Method: PREINCUBATION) is “inactive; negative”.

For the origin of these results see PubChem BioAssay AID1259407 (Chemical Carcinogenesis Research Information System (CCRIS), 2018).
